Data from US5534508A, “Cephem compounds and antimicrobial agents” (Katayama Seiyakusyo Co., Ltd., priority 1993, dated 1996).
Converted amounts (≈) assume the structure as drawn.

Tests used:
Assay type in all cases: cell-based
S. aureus 209p JC-1 = assay: MIC against standard strains (Table 1), S. aureus 209p JC-1; conditions: Staphylococcus aureus, Muller-Hinton agar, overnight 37° C., read-out: MIC (minimum growth inhibitory concentration)
Description: (§1) The minimum growth inhibitory concentration (MIC, μg/ml) of the compounds for each of the 25 standard laboratory strains (standard strains) shown in Table 1 was determined in accordance with the standard method of the Japan Chemotherapical Society (Chemotherapy, 29, 76-79 (1981) under "Re-revision of the measuring methods of minimum growth inhibitory concentration (MIC)").
(§2) That is, by using each test strain cultured overnight at 37° C. in a Muller-Hinton broth, there was prepared a bacterial solution with a cell density of 1×10^6 CFU/ml in the same broth. The bacterial solution was inoculated into the Muller-Hinton agar media each containing respectively one test agent (i.e., compound) and, after overnight incubation at 37° C., the minimum concentration that inhibited growth of the bacteria was determined and expressed as MIC.
(§3) Staphylococcus aureus 167 and Staphylococcus aureus 195 used in the test were MRSA. CTM (cefotiam) and FMOX (flomoxef) were used as the control agents.

S. aureus Smith = assay: MIC against standard strains (Table 1), S. aureus Smith; conditions: Staphylococcus aureus, Muller-Hinton agar, overnight 37° C., read-out: MIC (minimum growth inhibitory concentration)
Description: as §1, §2, §3

S. aureus 167 = assay: MIC against standard strains (Table 1), S. aureus 167 (MRSA); conditions: Staphylococcus aureus, Muller-Hinton agar, overnight 37° C., read-out: MIC (minimum growth inhibitory concentration)
Description: as §1, §2, §3

S. aureus 195 = assay: MIC against standard strains (Table 1), S. aureus 195 (MRSA); conditions: Staphylococcus aureus, Muller-Hinton agar, overnight 37° C., read-out: MIC (minimum growth inhibitory concentration)
Description: as §1, §2, §3

S. epidemidis IAM 1296 = assay: MIC against standard strains (Table 1), S. epidemidis IAM 1296; conditions: Muller-Hinton agar, overnight 37° C., read-out: MIC (minimum growth inhibitory concentration)
Description: as §1, §2, §3

M. luteus ATCC 9341 = assay: MIC against standard strains (Table 1), M. luteus ATCC 9341; conditions: Micrococcus luteus, ATCC9341, Muller-Hinton agar, overnight 37° C., read-out: MIC (minimum growth inhibitory concentration)
Description: as §1, §2, §3

B. subtilis ATCC 6633 = assay: MIC against standard strains (Table 1), B. subtilis ATCC 6633; conditions: Bacillus subtilis, ATCC6633, Muller-Hinton agar, overnight 37° C., read-out: MIC (minimum growth inhibitory concentration)
Description: as §1, §2, §3

E. coli JC-2 = assay: MIC against standard strains (Table 1), E. coli JC-2; conditions: Escherichia coli, JC2, Muller-Hinton agar, overnight 37° C., read-out: MIC (minimum growth inhibitory concentration)
Description: as §1, §2, §3

E. coli CSH2(RK1) = assay: MIC against standard strains (Table 1), E. coli CSH2(RK1); conditions: Escherichia coli, read-out: MIC (minimum growth inhibitory concentration)
Description: as §1, §2, §3

E. coli CSH2(RE45) = assay: MIC against standard strains (Table 1), E. coli CSH2(RE45); conditions: Escherichia coli, read-out: MIC (minimum growth inhibitory concentration)
Description: as §1, §2, §3

K. pneuminiae IFO 3317 = assay: MIC against standard strains (Table 1), K. pneuminiae IFO 3317; conditions: Muller-Hinton agar, overnight 37° C., read-out: MIC (minimum growth inhibitory concentration)
Description: as §1, §2, §3

K. pneuminiae No. 42 = assay: MIC against standard strains (Table 1), K. pneuminiae No. 42; conditions: Muller-Hinton agar, overnight 37° C., read-out: MIC (minimum growth inhibitory concentration)
Description: as §1, §2, §3

P. mirabilis IFO 3849 = assay: MIC against standard strains (Table 1), P. mirabilis IFO 3849; conditions: Proteus mirabilis, IFO3849, Muller-Hinton agar, overnight 37° C., read-out: MIC (minimum growth inhibitory concentration)
Description: as §1, §2, §3

P. vulugaris OX-19 = assay: MIC against standard strains (Table 1), P. vulugaris OX-19; conditions: Muller-Hinton agar, overnight 37° C., read-out: MIC (minimum growth inhibitory concentration)
Description: as §1, §2, §3

M. morganii IFO 3848 = assay: MIC against standard strains (Table 1), M. morganii IFO 3848; conditions: Morganella morganii, IFO3848, Muller-Hinton agar, overnight 37° C., read-out: MIC (minimum growth inhibitory concentration)
Description: as §1, §2, §3

S. marcescens IAM 1184 = assay: MIC against standard strains (Table 1), S. marcescens IAM 1184; conditions: Serratia marcescens, IAM1184, Muller-Hinton agar, overnight 37° C., read-out: MIC (minimum growth inhibitory concentration)
Description: as §1, §2, §3

S. marcescens No. 16-2 = assay: MIC against standard strains (Table 1), S. marcescens No. 16-2; conditions: Serratia marcescens, NO.162, Muller-Hinton agar, overnight 37° C., read-out: MIC (minimum growth inhibitory concentration)
Description: as §1, §2, §3

E. cloacae ATCC 13407 = assay: MIC against standard strains (Table 1), E. cloacae ATCC 13407; conditions: Enterobacter cloacae, ATCC13407, Muller-Hinton agar, overnight 37° C., read-out: MIC (minimum growth inhibitory concentration)
Description: as §1, §2, §3

E. cloacae Nek39 = assay: MIC against standard strains (Table 1), E. cloacae Nek39; conditions: Enterobacter cloacae, Muller-Hinton agar, overnight 37° C., read-out: MIC (minimum growth inhibitory concentration)
Description: as §1, §2, §3

C. freundii ATCC 8090 = assay: MIC against standard strains (Table 1), C. freundii ATCC 8090; conditions: Citrobacter freundii, ATCC8090, Muller-Hinton agar, overnight 37° C., read-out: MIC (minimum growth inhibitory concentration)
Description: as §1, §2, §3

P. aeruginosa NCTC 10490 = assay: MIC against standard strains (Table 1), P. aeruginosa NCTC 10490; conditions: Pseudomonas aeruginosa, NCTC10490, Muller-Hinton agar, overnight 37° C., read-out: MIC (minimum growth inhibitory concentration)
Description: as §1, §2, §3

P. aeruginosa AKR17 = assay: MIC against standard strains (Table 1), P. aeruginosa AKR17; conditions: Pseudomonas aeruginosa, Muller-Hinton agar, overnight 37° C., read-out: MIC (minimum growth inhibitory concentration)
Description: as §1, §2, §3

P. cepacia CN 9113 = assay: MIC against standard strains (Table 1), P. cepacia CN 9113; conditions: Burkholderia cepacia, CN9113, Muller-Hinton agar, overnight 37° C., read-out: MIC (minimum growth inhibitory concentration)
Description: as §1, §2, §3

A. faecalis ATCC 3750 = assay: MIC against standard strains (Table 1), A. faecalis ATCC 3750; conditions: Alcaligenes faecalis, ATCC3750, Muller-Hinton agar, overnight 37° C., read-out: MIC (minimum growth inhibitory concentration)
Description: as §1, §2, §3

A. calcoaceticos T59 = assay: MIC against standard strains (Table 1), A. calcoaceticos T59; conditions: Muller-Hinton agar, overnight 37° C., read-out: MIC (minimum growth inhibitory concentration)
Description: as §1, §2, §3

clinically isolated MRSA = assay: Antibacterial potency against clinically isolated MRSA (47 strains); conditions: Staphylococcus aureus; for MIC50: concentration inhibiting growth of 50% of 47 clinically isolated MRSA strains; for MIC90: concentration inhibiting growth of 90% of 47 clinically isolated MRSA strains
Description: A test on the antibacterial potency against clinically isolated MRSA was conducted in the following way.
That is, using 47 strains of clinically isolated MRSA, MIC was determined for each of the test strains in accordance with the standard method of the Japan Chemotherapical Society as in Test Example 1, and the minimum growth inhibitory concentration which inhibited growth of 50% of the strains tested was expressed as MIC50 (μg/ml), and the minimum growth inhibitory concentration which inhibited growth of 90% of the strains tested was expressed as MIC90 (μg/ml).
In this test, FMOX was used as the control agent.

| SMILES | MIC (S. aureus 209p JC-1) [µg/mL] | MIC (S. aureus Smith) [µg/mL] | MIC (S. aureus 167) [µg/mL] | MIC (S. aureus 195) [µg/mL] | MIC (S. epidemidis IAM 1296) [µg/mL] | MIC (M. luteus ATCC 9341) [µg/mL] | MIC (B. subtilis ATCC 6633) [µg/mL] | MIC (E. coli JC-2) [µg/mL] | MIC (E. coli CSH2(RK1)) [µg/mL] | MIC (E. coli CSH2(RE45)) [µg/mL] | MIC (K. pneuminiae IFO 3317) [µg/mL] | MIC (K. pneuminiae No. 42) [µg/mL] | MIC (P. mirabilis IFO 3849) [µg/mL] | MIC (P. vulugaris OX-19) [µg/mL] | MIC (M. morganii IFO 3848) [µg/mL] | MIC (S. marcescens IAM 1184) [µg/mL] | MIC (S. marcescens No. 16-2) [µg/mL] | MIC (E. cloacae ATCC 13407) [µg/mL] | MIC (E. cloacae Nek39) [µg/mL] | MIC (C. freundii ATCC 8090) [µg/mL] | also measured |
| --- | --- | --- | --- | --- | --- | --- | --- | --- | --- | --- | --- | --- | --- | --- | --- | --- | --- | --- | --- | --- | --- |
| CO/N=C(\C(=O)N[C@@H]1C(=O)N2C(C(=O)[O-])=C(/C=C/C[n+]3cccc(NC(N)=O)c3)CS[C@H]12)c1csc(N)n1 [Compound 6, 7β-[2-(2-aminothiazol-4-yl)-2-syn-methoxyiminoacetamido]-3-[(E)-3-(3-ureidopyridinio]-1-propenyl]-3-cephem-4-carboxylate] | 0.39 (≈ 0.698 µM) | 0.39 (≈ 0.698 µM) | 50 (≈ 89.5 µM) | 12.5 (≈ 22.4 µM) | 0.2 (≈ 0.358 µM) | 0.025 (≈ 0.0448 µM) | 0.2 (≈ 0.358 µM) | 0.025 (≈ 0.0448 µM) | 0.025 (≈ 0.0448 µM) | 0.1 (≈ 0.179 µM) | 0.025 (≈ 0.0448 µM) | 0.1 (≈ 0.179 µM) | 0.025 (≈ 0.0448 µM) | 0.025 (≈ 0.0448 µM) | 0.025 (≈ 0.0448 µM) | 0.025 (≈ 0.0448 µM) | 0.78 (≈ 1.4 µM) | 0.2 (≈ 0.358 µM) | 3.13 (≈ 5.6 µM) | 0.025 (≈ 0.0448 µM) | MIC (P. aeruginosa NCTC 10490): 0.39 µg/mL (≈ 0.698 µM); MIC (P. aeruginosa AKR17): > 100 µg/mL; MIC (P. cepacia CN 9113): 50 µg/mL (≈ 89.5 µM); MIC (A. faecalis ATCC 3750): 0.39 µg/mL (≈ 0.698 µM); MIC (A. calcoaceticos T59): 6.25 µg/mL (≈ 11.2 µM); MIC50 (clinically isolated MRSA): 13.8 µg/mL (≈ 24.7 µM); MIC90 (clinically isolated MRSA): 67 µg/mL (≈ 120 µM) |
| NC(=O)Nc1ccc[n+](C/C=C/C2=C(C(=O)[O-])N3C(=O)[C@@H](NC(=O)/C(=N\O)c4csc(N)n4)[C@H]3SC2)c1 [Compound 13, 7β-[2-(2-aminothiazol-4-yl)-2-syn-hydroxyiminoacetamido]-3-[(E)-3-(3-ureidopyridinio) -1-propenyl]-3-cephem-4-carboxylate] | 0.1 (≈ 0.184 µM) | 0.2 (≈ 0.367 µM) | 12.5 (≈ 23 µM) | 1.56 (≈ 2.86 µM) | 0.025 (≈ 0.0459 µM) | 0.05 (≈ 0.0918 µM) | 0.2 (≈ 0.367 µM) | 0.025 (≈ 0.0459 µM) | 0.05 (≈ 0.0918 µM) | 0.05 (≈ 0.0918 µM) | 0.025 (≈ 0.0459 µM) | 0.05 (≈ 0.0918 µM) | 0.05 (≈ 0.0918 µM) | 0.05 (≈ 0.0918 µM) | 0.025 (≈ 0.0459 µM) | 0.05 (≈ 0.0918 µM) | 6.25 (≈ 11.5 µM) | 0.1 (≈ 0.184 µM) | 6.25 (≈ 11.5 µM) | 0.025 (≈ 0.0459 µM) | MIC (P. aeruginosa NCTC 10490): 1.56 µg/mL (≈ 2.86 µM); MIC (P. aeruginosa AKR17): > 100 µg/mL; MIC (P. cepacia CN 9113): > 100 µg/mL; MIC (A. faecalis ATCC 3750): 0.78 µg/mL (≈ 1.43 µM); MIC (A. calcoaceticos T59): 3.13 µg/mL (≈ 5.75 µM); MIC50 (clinically isolated MRSA): 0.83 µg/mL (≈ 1.52 µM); MIC90 (clinically isolated MRSA): 5.08 µg/mL (≈ 9.33 µM) |
| CO/N=C(\C(=O)N[C@@H]1C(=O)N2C(C(=O)[O-])=C(/C=C/C[n+]3cccc(-c4csc(N)n4)c3)CS[C@H]12)c1csc(N)n1 [Compound 5, 7β-[2-(2-aminothiazol-4-yl)-2-syn-methoxyiminoacetamido]-3-[(E)-3-[3-(2-aminothiazol-4-yl)pyridinio]-1-propenyl]-3-cephem-4-carboxylate] | 0.39 (≈ 0.651 µM) | 0.39 (≈ 0.651 µM) | 100 (≈ 167 µM) | 12.5 (≈ 20.9 µM) | 0.2 (≈ 0.334 µM) | 0.025 (≈ 0.0418 µM) | 0.39 (≈ 0.651 µM) | 0.025 (≈ 0.0418 µM) | 0.05 (≈ 0.0835 µM) | 0.2 (≈ 0.334 µM) | 0.025 (≈ 0.0418 µM) | 0.2 (≈ 0.334 µM) | 0.1 (≈ 0.167 µM) | 0.025 (≈ 0.0418 µM) | 0.025 (≈ 0.0418 µM) | 0.025 (≈ 0.0418 µM) | 1.56 (≈ 2.61 µM) | 0.2 (≈ 0.334 µM) | 3.13 (≈ 5.23 µM) | 0.025 (≈ 0.0418 µM) | MIC (P. aeruginosa NCTC 10490): 1.56 µg/mL (≈ 2.61 µM); MIC (P. aeruginosa AKR17): > 100 µg/mL; MIC (P. cepacia CN 9113): 50 µg/mL (≈ 83.5 µM); MIC (A. faecalis ATCC 3750): 0.78 µg/mL (≈ 1.3 µM); MIC (A. calcoaceticos T59): 12.5 µg/mL (≈ 20.9 µM) |
